Laboratory results published in patent publication US7211557B2, “Use of GLP-1 analogs and derivatives administered peripherally in regulation of obesity” (Eli Lilly and Company, priority 1996, dated 2007).

Key:
[1] = cited from earlier work
[2] = cited from earlier work; remark: listed apart in the source
[3] = Continuous subcutaneous infusion of GLP-1(7-36) amide for four weeks in NIDDM patients, preceded and followed by two weeks of intensive insulin therapy: body weight; format: in vivo, human; settings: for body weight lost, average: four patients, mean±SEM
STC-1 cells = settings: exposure of STC-1 cells; cited from earlier work

GLP-1(7-36) amide
food intake following injection of neuropeptide Y ([1]; ICV, animals fed ad libitum): significantly reduces food intake
feeding ([1]; intracerebroventricular route (ICV), fasted rats): markedly inhibits feeding
food intake ([2]; acute intraperitoneal administration in rats): does not affect food intake
early dark-phase feeding ([2]; intraperitoneal administration, even at relatively high doses): does not affect early dark-phase feeding
body weight lost, average ([3]; during GLP-1 treatment (4 weeks)): 3.5 ± 1.2 kg
Weight Change ([3]; mean±SEM of patients, GLP-1 infusion 1.2 pmol/kg/minute s.c., 4 weeks): -3.5 ± 1.2 kg
Patient Weight ([3]; mean±SEM of patients, after GLP-1 infusion 1.2 pmol/kg/minute s.c., 4 weeks): 92.9 ± 5.8 kg
Weight Change ([3]; patient four, GLP-1 infusion 1.2 pmol/kg/minute s.c., 4 weeks): -3.0 kg
Patient Weight ([3]; patient four, after GLP-1 infusion 1.2 pmol/kg/minute s.c., 4 weeks): 108.0 kg
Weight Change ([3]; patient one, GLP-1 infusion 1.2 pmol/kg/minute s.c., 4 weeks): -7.0 kg
Patient Weight ([3]; patient one, after GLP-1 infusion 1.2 pmol/kg/minute s.c., 4 weeks): 92.0 kg
Weight Change ([3]; patient three, GLP-1 infusion 1.2 pmol/kg/minute s.c., 4 weeks): -1.9 kg
Patient Weight ([3]; patient three, after GLP-1 infusion 1.2 pmol/kg/minute s.c., 4 weeks): 80.0 kg
Weight Change ([3]; patient two, GLP-1 infusion 1.2 pmol/kg/minute s.c., 4 weeks): -2.0 kg
Patient Weight ([3]; patient two, after GLP-1 infusion 1.2 pmol/kg/minute s.c., 4 weeks): 91.5 kg
effect on body weight ([3]; peripheral administration to obese patients): significant reduction in body weight

insulin
body weight lost, average ([3]; first two weeks of intensive insulin treatment): 1.3 ± 0.6 kg
Weight Change ([3]; mean±SEM of patients (no data for MP), Second Insulin treatment, 2 weeks): +1.0 ± 1.0 kg
Patient Weight ([3]; mean±SEM of patients (no data for MP), after Second Insulin treatment, 2 weeks): 98.2 ± 5.0 kg
Weight Change ([3]; mean±SEM of patients, First Insulin treatment, 2 weeks): -1.3 ± 0.6 kg
Patient Weight ([3]; mean±SEM of patients, after First Insulin treatment, 2 weeks): 96.4 ± 6.0 kg
Weight Change ([3]; patient four, First Insulin treatment, 2 weeks): -2.0 kg
Weight Change ([3]; patient four, Second Insulin treatment, 2 weeks): 0.0 kg
Patient Weight ([3]; patient four, after First Insulin treatment, 2 weeks): 111.0 kg
Patient Weight ([3]; patient four, after Second Insulin treatment, 2 weeks): 108.0 kg
Weight Change ([3]; patient one, First Insulin treatment, 2 weeks): -2.5 kg
Weight Change ([3]; patient one, Second Insulin treatment, 2 weeks): 3.0 kg
Patient Weight ([3]; patient one, after First Insulin treatment, 2 weeks): 99.0 kg
Patient Weight ([3]; patient one, after Second Insulin treatment, 2 weeks): 95.0 kg
Weight Change ([3]; patient three, First Insulin treatment, 2 weeks): -0.1 kg
Patient Weight ([3]; patient three, after First Insulin treatment, 2 weeks): 81.9 kg
Weight Change ([3]; patient two, First Insulin treatment, 2 weeks): -0.5 kg
Weight Change ([3]; patient two, Second Insulin treatment, 2 weeks): 0.0 kg
Patient Weight ([3]; patient two, after First Insulin treatment, 2 weeks): 93.5 kg
Patient Weight ([3]; patient two, after Second Insulin treatment, 2 weeks): 91.5 kg
body weight change, on average ([3]; second two weeks of intensive insulin treatment): gained weight

CCCCCCCCCCCCCC(=O)O[C@@H]1[C@@H](C)[C@@]2(O)[C@@H](C=C(CO)C[C@]3(O)C(=O)C(C)=C[C@@H]23)[C@@H]2C(C)(C)[C@]12OC(C)=O [TPA, 12-O-tetradecanoylphorbol-13-acetate]
release of GLP-1 (STC-1 cells): significant increases in release of GLP-1
